# Legend:
# [1] = tested on: CHO-7W cells expressing wildtype human APP; assay: sAPPβ and Aβ1-42 production in CHO-7W cells (AlphaLISA); type: cell-based, Chinese hamster
# Method: Culture Media was collected and frozen. Media was assayed using an AlphaLISA for Aβ1-42 (Perkin Elmer catalog # AL276C), sAPPα (R&D Systems catalog # AF1168 conjugated with Perkin Elmer acceptor beads catalog # 6772001 + 2B3 antibody from IBL catalog # 11088 biotinylated), and sAPPβ (Perkin Elmer AL276-acceptor + IBL catalog # 18957 biotinylated). For the assay, 2 μL of diluted or undiluted sample was added to a 384 well plate, followed by 2 μL of the respective antibody mixture. This was incubated for 1 h. Afterwards, 2 μL of donor beads was added to each well, followed by a 30-min incubation in the dark, after which the signal was read.
# Plasma stability assay = type: in vitro ADME; details: human plasma diluted 2-fold in PBS, pH 7.4, 37 °C, 180 min, read-out: Plasma stability t1/2
# Method: The effects of candidate ASBIs on BACE2 activity was assessed using the R&D Systems BACE2 activity assay kit (Catalog #: 4097-AS and ES010) formatted from to the manufacturers. For the assay, 4 μL of assay buffer was added to each well, followed by 2 μL of BACE2 diluted in assay buffer to 10 ng/µL.
# Then, 2 μL of inhibitor, at the appropriate concentrations were added to the wells and incubated for 30 minutes at room temperature. For all dilutions of inhibitor, drug stock solutions of 10 mM in DMSO were diluted to 50 μM in water; subsequent dilutions were in 0.5% DMSO. Afterwards, 2 μL of fluorogenic BACE2 substrate, diluted to 50 μM in assay buffer, were added to each well, after which the signal generated was read every 30 minutes at 25 °C for 2 hr (Fig S2).
# FAH65 and its enantiomers at 10 mM in 100% DMSO was diluted in PBS pH 7.4 to 100, 10, 1, and 0.1 µM; plus, a vehicle-only control. The solutions were incubated at 37 °C for 90 min and centrifuged at 16K x g for 5 min. An aliquot of each supernatant was analyzed by LC-MS/MS. […]
# Kinetic solubility (µM) was calculated using the trendline equation with maximum chromatographic peak area observed in the aqueous sample. […]
# ([…]® CAN, Chiral Technologies, Cat#H15L-109, 5 µm 50 x 4 mm). […] The retention time of the compound (tr) and injection peak were recorded.
# The percent protein binding (P) was calculated using the following equations: […]
# [2] = molecular target: T1, human serum albumin (HSA) (Homo sapiens, UniProt P02768); assay: Human serum albumin (HSA) binding assay; type: in vitro ADME
# T1 construct: purchased Chiral Technologies H15L-109
# Method: Human serum albumin (HSA) binding assay
# The liquid chromatography-ultraviolet/visible spectroscopy (LC-UV/Vis) assay was performed on a 1290 Infinity HPLC system (Agilent Technologies) with an HPLC column containing immobilized HSA
# ([…]® CAN, Chiral Technologies, Cat#H15L-109, 5 µm 50 x 4 mm). The HPLC method utilized an isocratic gradient containing 100% 6.7 mM phosphate buffer saline (pH 7.4). The retention time of the compound (tr) and injection peak were recorded.
# The percent protein binding (P) was calculated using the following equations:
# K’ = (tr – tm) / tm; P = 100 x [K’ / (K’ + 1)] […]
# The […]
# KIAM = (tr – t0) / t0; Pm = (KIAM / MW4) x 1010
# Compounds with a Pm >0.85 are predicted to be BBB permeable (CNS+) at pH 7.4.
# Brain Tissue Binding Assay […]
# Cat#23235). Brain homogenate was diluted to 20 mg/mL in PBS (pH 7.4) and added to Slide-A-Lyzer™ MINI Dialysis Devices, 10K MWCO dialysis cups (Thermo Fisher Scientific, Cat#PI88401) in a 48-well plate containing PBS (500 µL; pH 7.4). 1 µL of 1 mM compound was added to the brain homogenate (final concentration: 2 µM compound, 0.5% DMSO) and incubated on a rocker for 4.5 hours at 37 °C. 50 µL of brain homogenate (within the dialysis cup) and PBS (within the 48-well plate) were transferred to new microcentrifuge tubes containing 200 µL of quenching reagent (100% acetonitrile) containing internal […]
# standard. […]
# [3] = tested on: BACE1 cleavage of rat APP; assay: Pilot PD of FAH65 vs. verubecestat in rats (CSF and medial cortex biomarkers); type: in vivo; details: oral, 30 mg/kg
# T1 sequence (P02768 25-609): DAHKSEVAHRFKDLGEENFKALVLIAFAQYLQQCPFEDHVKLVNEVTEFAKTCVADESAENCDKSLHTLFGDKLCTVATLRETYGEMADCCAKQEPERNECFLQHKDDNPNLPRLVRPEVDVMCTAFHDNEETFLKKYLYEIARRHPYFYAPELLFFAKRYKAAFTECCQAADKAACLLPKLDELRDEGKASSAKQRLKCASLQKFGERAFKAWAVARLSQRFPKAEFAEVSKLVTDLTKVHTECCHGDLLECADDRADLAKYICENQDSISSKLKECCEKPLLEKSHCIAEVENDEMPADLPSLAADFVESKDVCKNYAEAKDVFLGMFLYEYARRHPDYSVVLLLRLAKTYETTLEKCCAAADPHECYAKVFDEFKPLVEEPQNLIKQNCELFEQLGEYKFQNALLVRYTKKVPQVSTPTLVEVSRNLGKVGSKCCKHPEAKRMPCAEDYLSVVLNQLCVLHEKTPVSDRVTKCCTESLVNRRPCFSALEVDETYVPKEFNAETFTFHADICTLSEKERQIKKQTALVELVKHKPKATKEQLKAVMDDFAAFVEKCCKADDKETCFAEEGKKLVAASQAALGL
smiles,measurement,setting,value
Cc1cc(C2(c3cccc(-c4cncnc4)c3)N=C(N)N(C)C2=O)ccc1OC(F)F (stereo not shown) [FAH65],sAPPβ reduction,[1],> 90%
same,sAPPβ production,"[1]; 1 μM, 24-h treatment, in words",decrease
same,Aβ1-42 production,"[1]; 1 μM, in words",decrease
same,half-life at 1 µM,Plasma stability assay,> 3 h
same,"Plasma (HSA) binding, funbound",[2],0.44%
same,time post-delivery of lowest sAPPβ in brain (medial cortex),[3],6 h
same,time post-delivery of lowest sAPPβ in CSF,[3]; 1- and 2-h FAH65 samples not available,3 h
same,Aβ1-40 in CSF compared with Veru-treated rats,[3]; in words,lower
same,sAPPα levels in brain medial cortex,[3]; in words,higher
same,sAPPβ in CSF compared with Veru,[3]; in words,lower

# Source: PMC12491701, “Discovery of an APP-selective BACE1 inhibitor for Alzheimer's disease” (Neurotherapeutics, 2025)
